In PubChem BioAssay (NCI):
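1) Cells in 96-well plates. 2) Compound, 48 h, 5 concentrations. 3) Linear interpolation between surrounding doses. 4) Unreached endpoint = highest concentration. Here, GI50 denotes the concentration required for 50% inhibition of growth. TGI is the concentration that stops growth completely.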

Assays:
Test in all cases: NCI-60 cell line screen, 48 h
MDA-N = system: MDA-N
SK-OV-3 ovarian = system: SK-OV-3 ovarian
LOX IMVI melanoma = system: LOX IMVI melanoma
HL-60(TB) leukemia = system: HL-60(TB) leukemia
ACHN renal = system: ACHN renal
MOLT-4 leukemia = system: MOLT-4 leukemia
HOP-92 NSCLC = system: HOP-92 NSCLC
HCT-116 colon = system: HCT-116 colon
SF-295 CNS = system: SF-295 CNS
SF-268 CNS = system: SF-268 CNS
SR leukemia = system: SR leukemia
UO-31 renal = system: UO-31 renal
TK-10 renal = system: TK-10 renal
EKVX NSCLC = system: EKVX NSCLC
786-0 renal = system: 786-0 renal
DU-145 prostate = system: DU-145 prostate
SK-MEL-2 melanoma = system: SK-MEL-2 melanoma
SK-MEL-5 melanoma = system: SK-MEL-5 melanoma
KM12 colon = system: KM12 colon
RXF 393 renal = system: RXF 393 renal
OVCAR-4 ovarian = system: OVCAR-4 ovarian
HS 578T breast = system: HS 578T breast
RPMI-8226 leukemia = system: RPMI-8226 leukemia
MDA-MB-231 breast = system: MDA-MB-231 breast
NCI-H460 lung = system: NCI-H460 lung
HCC-2998 colon = system: HCC-2998 colon
IGROV1 ovarian = system: IGROV1 ovarian
HOP-62 NSCLC = system: HOP-62 NSCLC
MDA-MB-435 = system: MDA-MB-435
U251 CNS = system: U251 CNS
HCT-15 colon = system: HCT-15 colon
NCI-H23 lung = system: NCI-H23 lung
OVCAR-5 ovarian = system: OVCAR-5 ovarian
M14 melanoma = system: M14 melanoma
A498 renal = system: A498 renal
MCF7 breast = system: MCF7 breast
SNB-19 CNS = system: SNB-19 CNS
T-47D breast = system: T-47D breast
MALME-3M melanoma = system: MALME-3M melanoma
K-562 leukemia = system: K-562 leukemia
OVCAR-3 ovarian = system: OVCAR-3 ovarian
NCI-H522 lung = system: NCI-H522 lung
A549 NSCLC = system: A549 NSCLC
SW-620 colon = system: SW-620 colon
SF-539 CNS = system: SF-539 CNS
SK-MEL-28 melanoma = system: SK-MEL-28 melanoma
UACC-62 melanoma = system: UACC-62 melanoma
PC-3 prostate = system: PC-3 prostate
COLO 205 colon = system: COLO 205 colon
SNB-75 CNS = system: SNB-75 CNS
CAKI-1 renal = system: CAKI-1 renal
UACC-257 melanoma = system: UACC-257 melanoma
SN12C renal = system: SN12C renal
BT-549 breast = system: BT-549 breast
NCI-H226 lung = system: NCI-H226 lung
OVCAR-8 ovarian = system: OVCAR-8 ovarian
CCRF-CEM leukemia = system: CCRF-CEM leukemia
HT29 colon = system: HT29 colon

## Brc1ccc(-c2[nH]c3ccccc3c2N=Nc2ccccc2)cc1
MDA-N
  TGI: 30500 nM
SK-OV-3 ovarian
  TGI: 33000 nM
LOX IMVI melanoma
  TGI: 65200 nM
HL-60(TB) leukemia
  TGI: 63400 nM
ACHN renal
  TGI: 37200 nM
MOLT-4 leukemia
  TGI: 38600 nM
HOP-92 NSCLC
  TGI: 36200 nM
HCT-116 colon
  TGI: 34800 nM
SF-295 CNS
  TGI: 33300 nM
SF-268 CNS
  TGI: 36000 nM
SR leukemia
  TGI: 51800 nM
UO-31 renal
  TGI: 29900 nM
TK-10 renal
  TGI: 37800 nM
EKVX NSCLC
  TGI: 32900 nM
786-0 renal
  TGI: 32900 nM
DU-145 prostate
  TGI: 32200 nM
SK-MEL-2 melanoma
  TGI: 36700 nM
SK-MEL-5 melanoma
  TGI: 32700 nM
KM12 colon
  TGI: 36100 nM
RXF 393 renal
  TGI: 30800 nM
OVCAR-4 ovarian
  TGI: 30400 nM
HS 578T breast
  TGI: 44100 nM
RPMI-8226 leukemia
  TGI: 58000 nM
MDA-MB-231 breast
  TGI: 35800 nM
NCI-H460 lung
  TGI: 31800 nM
HCC-2998 colon
  TGI: 30700 nM
IGROV1 ovarian
  TGI: 26200 nM
HOP-62 NSCLC
  TGI: 34700 nM
MDA-MB-435
  TGI: 34500 nM
U251 CNS
  TGI: 33900 nM
HCT-15 colon
  TGI: 30000 nM
NCI-H23 lung
  TGI: 34100 nM
OVCAR-5 ovarian
  TGI: 33500 nM
M14 melanoma
  TGI: 33500 nM
A498 renal
  TGI: 44100 nM
MCF7 breast
  TGI: 31700 nM
SNB-19 CNS
  TGI: 38100 nM
T-47D breast
  TGI: 32500 nM
MALME-3M melanoma
  TGI: 36100 nM
K-562 leukemia
  TGI: > 100000 nM
OVCAR-3 ovarian
  TGI: 26800 nM
NCI-H522 lung
  TGI: 34600 nM
A549 NSCLC
  TGI: 30500 nM
SW-620 colon
  TGI: 35300 nM
SF-539 CNS
  TGI: 32000 nM
SK-MEL-28 melanoma
  TGI: 37800 nM
UACC-62 melanoma
  TGI: 36700 nM
PC-3 prostate
  TGI: 32600 nM
COLO 205 colon
  TGI: 28500 nM
SNB-75 CNS
  TGI: 33900 nM
CAKI-1 renal
  TGI: 27800 nM
UACC-257 melanoma
  TGI: 35100 nM
SN12C renal
  TGI: 31600 nM
BT-549 breast
  TGI: 41500 nM

## CC(=O)OCc1cnc2c3c(nc4ccccc4c13)C(=O)c1cccnc1-2
MDA-N
  GI50: 110 nM
  TGI: 366 nM
SK-OV-3 ovarian
  GI50: 50 nM
  TGI: 874 nM
LOX IMVI melanoma
  GI50: < 10 nM
  TGI: 51.7 nM
HL-60(TB) leukemia
  GI50: 20.6 nM
ACHN renal
  GI50: < 10 nM
MOLT-4 leukemia
  GI50: 290 nM
  TGI: > 20500 nM
HOP-92 NSCLC
  GI50: 104 nM
  TGI: 2770 nM
HCT-116 colon
  GI50: < 10 nM
  TGI: 27 nM
SF-295 CNS
  GI50: 172 nM
  TGI: 751 nM
SF-268 CNS
  GI50: 34.1 nM
  TGI: 1010 nM
SR leukemia
  GI50: < 10 nM
  TGI: > 100000 nM
TK-10 renal
  GI50: 57.3 nM
  TGI: 420 nM
EKVX NSCLC
  GI50: 187 nM
  TGI: 2600 nM
786-0 renal
  GI50: < 10 nM
  TGI: 30.5 nM
DU-145 prostate
  GI50: < 18.7 nM
  TGI: 147 nM
SK-MEL-2 melanoma
  GI50: 482 nM
  TGI: 1960 nM
SK-MEL-5 melanoma
  GI50: 37.3 nM
  TGI: 106 nM
KM12 colon
  GI50: 167 nM
  TGI: 504 nM
RXF 393 renal
  GI50: < 34.3 nM
  TGI: 841 nM
OVCAR-4 ovarian
  GI50: 32.9 nM
  TGI: 390 nM
NCI-H226 lung
  GI50: < 15 nM
  TGI: 121 nM
HS 578T breast
  GI50: 271 nM
  TGI: 1330 nM
OVCAR-8 ovarian
  GI50: 11.5 nM
  TGI: 109 nM
RPMI-8226 leukemia
  GI50: 168 nM
  TGI: 983 nM
MDA-MB-231 breast
  GI50: 131 nM
  TGI: 647 nM
NCI-H460 lung
  GI50: 18.6 nM
  TGI: 147 nM
HCC-2998 colon
  GI50: 102 nM
  TGI: 535 nM
IGROV1 ovarian
  GI50: 124 nM
  TGI: 1890 nM
HOP-62 NSCLC
  GI50: 27 nM
  TGI: 163 nM
MDA-MB-435
  GI50: 120 nM
  TGI: 527 nM
U251 CNS
  GI50: 23.7 nM
HCT-15 colon
  GI50: < 10 nM
  TGI: 127 nM
NCI-H23 lung
  GI50: 118 nM
  TGI: 612 nM
OVCAR-5 ovarian
  GI50: 435 nM
  TGI: 2230 nM
M14 melanoma
  GI50: 25.5 nM
  TGI: 125 nM
A498 renal
  GI50: 162 nM
  TGI: 790 nM
CCRF-CEM leukemia
  GI50: 25.1 nM
MCF7 breast
  GI50: < 11.8 nM
  TGI: 90.4 nM
SNB-19 CNS
  GI50: 42.4 nM
  TGI: 959 nM
T-47D breast
  GI50: 827 nM
  TGI: 10500 nM
MALME-3M melanoma
  GI50: 22 nM
  TGI: 205 nM
K-562 leukemia
  GI50: 47.8 nM
OVCAR-3 ovarian
  GI50: 30 nM
NCI-H522 lung
  GI50: 43.4 nM
  TGI: 330 nM
A549 NSCLC
  GI50: 58.6 nM
  TGI: 14900 nM
SW-620 colon
  GI50: < 11.3 nM
  TGI: 500 nM
SF-539 CNS
  GI50: < 13.1 nM
  TGI: 82 nM
SK-MEL-28 melanoma
  GI50: 174 nM
  TGI: 614 nM
UACC-62 melanoma
  GI50: 135 nM
  TGI: 403 nM
PC-3 prostate
  GI50: 133 nM
  TGI: 2420 nM
COLO 205 colon
  GI50: 321 nM
  TGI: 1010 nM
SNB-75 CNS
  GI50: 68.3 nM
  TGI: 414 nM
CAKI-1 renal
  GI50: < 10 nM
  TGI: 150 nM
UACC-257 melanoma
  GI50: 253 nM
  TGI: 849 nM
SN12C renal
  GI50: 22.1 nM
  TGI: 318 nM
HT29 colon
  GI50: 193 nM
  TGI: 634 nM
BT-549 breast
  GI50: 150 nM
  TGI: 1760 nM
